Experimental data reported in publication PMC7762046, “Fragments of a Wheat Hevein-Like Antimicrobial Peptide Augment the Inhibitory Effect of a Triazole Fungicide on Spore Germination of Fusarium oxysporum and Alternaria solani” (Antibiotics, 2020).
Like-named read-outs stand apart in the source and are kept apart here. Marks after values point to notes of the source that are not given here. Residues, ends and D or L forms follow the SMILES beside them.

Columns and labels:
A. solani [1] = assay type: cell-based, Alternaria solani (strain MO-VNIIF-9-2018)
Method: (§1) The assays were performed in 96-well microtiter plates, using a “checkerboard” design. Fungal conidia were treated with either Folicur® or peptide fragments, each alone, and, in parallel, were subjected to combined treatments wherein the fungicide and one of the WAMP-2-derived peptides were mixed in the same concentration as when used alone. […] However, enhancement potency varied depending on the pathogen, the WAMP fragment, and co-applied concentrations of the WAMP-2 fragments and Folicur®.
(§2) The inhibitory effect of synthesized peptides on conidial germination of fungi was assessed by a microtiterplate assay. Fungal conidia were added to WAMP-2-derived peptides, already dissolved in SDW, to prepare suspensions having final concentrations of 10^5 microconidia/mL (F. oxysporum) or 3 × 10^4 macroconidia/mL (A. solani). Resulting suspensions were incubated at 20–22 °C overnight in wells of 96-well microtiter plates. Control suspensions (with the same final concentrations of conidia) were prepared using SDW. Thereafter, germinated and non-germinated conidia (500 ones of each pathogen per treatment) were counted in treated and control suspensions using an inverted microscope. The average number of conidia germinated in these suspensions was calculated and expressed as the percent of the total number of the counted conidia. In addition, percent germination inhibition in the treated conidia, relative to germination in controls, was determined and indicated as levels of the inhibitory effect in Table 2 and Table 3. Oligopeptides were tested at final concentrations of 50, 100, 200, and 400 µg/mL, which were selected based on previous results of testing of the same WAMP-2-derived peptides for the ability to inhibit spore germination in other Fusarium and Alternaria species.
(§3) In vitro tests involving pathogen sensitization to Folicur® EC 250 were designed under the principle of a microdilution checkerboard assay. Fungal conidia were incubated in 96-well plates in mixtures of the fungicide and each of the peptides at the above-mentioned concentrations in parallel with conidia’ incubation in the solutions of Folicur® or the oligopeptides, alone, used at the same final concentrations as in the mixtures.
(§4) To reveal oligopeptide/fungicide synergy, the Limpel criterion Ee < Er was determined by Formula (1):Ee,% = (X + Y) − XY/100 < Er,% (at p ≤ 0.05),(1) where Ee is the level of an expected additive effect from application of both test compounds; X and Y represent inhibition of the spore germination in % by each antifungal agent used alone; and Er is the percentage of actual inhibition obtained experimentally by co-application of X and Y.
(§5) For each of the two pathogens, microtiter plate tests with synthesized peptides included three independent experimental series. Each experiment included 5 replications of each treatment, 100 conidia per each one (n = 500). Experiments evaluating the sensitizing activity of the tested peptides on leaf disks and detached tomato seedlings were additionally repeated twice. Mean values, standard deviations, standard errors, as well as significant differences from controls and between treatments (t-test for independent variables, p ≤ 0.05), were calculated using STATISTICA v. 6.1 software (StatSoft Inc., Tulsa, OK, USA). Approximation of confidence values (R^2) and regression coefficients were determined using statistical functions of Microsoft Excel 2013 (Microsoft Corp. Redmond, WA, USA).

F. oxysporum [2] = assay type: cell-based, Fusarium oxysporum f. sp. lycopersici (strain F37)
Method: In the first series of these experiments, we tested the inhibitory effect of the fragments against F. oxysporum and compared the inhibitory activity of the fragments to each other and to the entire WAMP-2 peptide. Microconidia of the pathogen were treated to each of the WAMP-2 fragments taken at three or four concentrations ranging between 50 and 200 (WAMP-N, WAMP-G2), 100 and 400 (WAMP-G1), or 50 and 400 (WAMP-C) µg/mL. […] After the treatments, the rate of germinated conidia was determined, expressed as the percent relative to the total number of conidia counted (500 ones per treatment). Effective doses (EDs) providing a 50% or 99.9% inhibition were calculated by probit analysis. The performed analysis confirmed our previous data on the antifungal activity of WAMP-2-derived fragments towards the Fusarium wilt agent.
as §2
Inhibitory concentrations of the peptides providing in vitro 50% or 99% in vitro suppression of conidial germination (ED50, and ED99, respectively) were determined by the probit analysis with the involvement of a linear regression. In a regression equation (Y = ax + b) used in probit analyses, Y is the probit value for 50% or 99% inhibition levels, x values are decimal logarithms of the correspondent concentrations, and a and b represent regression coefficients. The calculated ED99 values from the probit analysis were considered as the minimum fungicidal concentration (MFC), i.e., the lowest concentration of a peptide, used alone, resulting in […] inhibition of conidial germination.
as §5, with “Experiments evaluating the sensitizing activity of the tested peptides on leaf disks and detached tomato seedlings were additionally repeated twice.” left out, “6.1 software (StatSoft Inc., Tulsa, OK, USA).” left out

F. oxysporum [3] = assay type: cell-based, Fusarium oxysporum f. sp. lycopersici (strain F37); conditions: for Expected additive inhibitory effect (Ee), peptide combined with Folicur: calculated by Limpel's formula
Method: as §1, §2, §3, §4, §5

A. solani [4] = assay type: cell-based, Alternaria solani (strain MO-VNIIF-9-2018); remark: listed apart in the source
Method: as §2, with “Oligopeptides were tested at final concentrations of 50, 100, 200, and 400 µg/mL, which were selected based on previous results of testing of the same WAMP-2-derived peptides for the ability to inhibit spore germination in other Fusarium and Alternaria species.” left out
For each of the two pathogens, microtiter plate tests with synthesized peptides included three independent experimental series. […] Mean values, standard deviations, standard errors, as well as significant differences from controls and between treatments (t-test for independent variables, p ≤ 0.05), were calculated using STATISTICA v. […]

Compound: N=C(N)NCCC[C@H](NC(=O)[C@H](CS)NC(=O)CNC(=O)[C@H](CCCNC(=N)N)NC(=O)[C@H](CS)NC(=O)[C@H](CCC(N)=O)NC(=O)[C@H](CO)NC(=O)[C@H](CCC(N)=O)NC(=O)[C@H](CS)NC(=O)[C@H](CO)NC(=O)CNC(=O)[C@H](CCCCN)NC(=O)CN)C(=O)O [WAMP-C] (H-GKGSCQSQCRGCR-OH)
- Inhibitory effect on conidial germination (Er), peptide alone (A. solani [1]; 100 µg/mL): 19.0 ^a %
- Inhibitory effect on conidial germination (Er), peptide alone (A. solani [1]; 200 µg/mL): 31.0 ^b %
- Inhibitory effect on conidial germination (Er), peptide alone (A. solani [1]; 400 µg/mL): 48.2 ^c %
- ED99 (MFC) (F. oxysporum [2]): 106.9 ^d µg/mL
- Inhibitory effect on conidial germination (Er), peptide alone (F. oxysporum [3]; 50 µg/mL): 4.3 ^a %
- Inhibitory effect on conidial germination (Er), peptide alone (F. oxysporum [3]; 100 µg/mL): 6.2 ^b %
- Inhibitory effect on conidial germination (Er), peptide alone (F. oxysporum [3]; 200 µg/mL): 8.6 ^c %
- Inhibitory effect on conidial germination (Er), peptide alone (F. oxysporum [3]; 400 µg/mL): 11.6 ^c %
- ED99 (MFC) (A. solani [4]): 53.4 ^g µg/mL

Compound: C[C@H](N)C(=O)N[C@@H](CCC(N)=O)C(=O)N[C@@H](CCCNC(=N)N)C(=O)N[C@@H](CS)C(=O)NCC(=O)N[C@@H](CC(=O)O)C(=O)N[C@@H](CCC(N)=O)C(=O)N[C@@H](C)C(=O)N[C@@H](CCCNC(=N)N)C(=O)NCC(=O)N[C@@H](C)C(=O)N[C@@H](CCCCN)C(=O)N[C@@H](CS)C(=O)O [WAMP-N] (H-AQRCGDQARGAKC-OH)
- ED99 (MFC) (F. oxysporum [2]): 22.7 µg/mL
- Inhibitory effect on conidial germination (Er), peptide alone (F. oxysporum [3]; 50 µg/mL): 12.3 ^a %
- Inhibitory effect on conidial germination (Er), peptide alone (F. oxysporum [3]; 100 µg/mL): 23.1 ^b %
- Inhibitory effect on conidial germination (Er), peptide alone (F. oxysporum [3]; 200 µg/mL): 42.7 ^c %

Compound: CC(C)C[C@H](N)C(=O)N[C@@H](CS)C(=O)N[C@@H](CS)C(=O)NCC(=O)N[C@@H](CCCCN)C(=O)N[C@@H](Cc1ccc(O)cc1)C(=O)NCC(=O)N[C@@H](Cc1ccccc1)C(=O)N[C@@H](CS)C(=O)NCC(=O)N[C@@H](CO)C(=O)NCC(=O)O [WAMP-G1] (H-LCCGKYGFCGSG-OH)
- Inhibitory effect on conidial germination (Er), peptide alone (A. solani [1]; 100 µg/mL): 2.0 ^a %
- Inhibitory effect on conidial germination (Er), peptide alone (A. solani [1]; 200 µg/mL): 9.8 ^b %
- Inhibitory effect on conidial germination (Er), peptide alone (A. solani [1]; 400 µg/mL): 21.9 ^c %
- ED99 (MFC) (F. oxysporum [2]): >10,000 µg/mL
- Inhibitory effect on conidial germination (Er), peptide alone (F. oxysporum [3]; 100 µg/mL): 1.1 ^a %
- Inhibitory effect on conidial germination (Er), peptide alone (F. oxysporum [3]; 200 µg/mL): 8.0 ^b %
- Inhibitory effect on conidial germination (Er), peptide alone (F. oxysporum [3]; 400 µg/mL): 17.5 ^c %
- ED99 (MFC) (A. solani [4]): 3980.0 ^f µg/mL

Compound: CCGKYGFCGSGDAYC [WAMP-G2, chemically synthesized fragment (residues 18–32) from the central region of WAMP-2]
- ED50 (F. oxysporum [2]; 50% inhibition of microconidia germination, probit analysis, SDW, overnight 20–22 °C): 0.35 ^a µg/mL
- ED99 (MFC) (F. oxysporum [2]; lowest concentration giving 99.9% inhibition of conidial germination, probit analysis): 35.1 ^b µg/mL
- Expected additive inhibitory effect (Ee), peptide combined with Folicur (F. oxysporum [3]; peptide 50 µg/mL + Folicur 0.005 µg/mL): 14.5%
- Observed inhibitory effect (Er), peptide combined with Folicur (F. oxysporum [3]; peptide 50 µg/mL + Folicur 0.005 µg/mL, mean of 3 experiments): 27.8 ^b %
- Expected additive inhibitory effect (Ee), peptide combined with Folicur (F. oxysporum [3]; peptide 50 µg/mL + Folicur 0.01 µg/mL): 24.8%
- Observed inhibitory effect (Er), peptide combined with Folicur (F. oxysporum [3]; peptide 50 µg/mL + Folicur 0.01 µg/mL, mean of 3 experiments): 36.4 ^b %
- Expected additive inhibitory effect (Ee), peptide combined with Folicur (F. oxysporum [3]; peptide 50 µg/mL + Folicur 0.05 µg/mL): 33.0%
- Observed inhibitory effect (Er), peptide combined with Folicur (F. oxysporum [3]; peptide 50 µg/mL + Folicur 0.05 µg/mL, mean of 3 experiments): 47.4 ^b %
- Inhibitory effect on conidial germination (Er), peptide alone (F. oxysporum [3]; peptide 50 µg/mL, Folicur 0.0 µg/mL, SDW, overnight 20–22 °C, mean of 3 experiments): 7.0 ^a %
- Expected additive inhibitory effect (Ee), peptide combined with Folicur (F. oxysporum [3]; peptide 100 µg/mL + Folicur 0.005 µg/mL): 28.8%
- Observed inhibitory effect (Er), peptide combined with Folicur (F. oxysporum [3]; peptide 100 µg/mL + Folicur 0.005 µg/mL, mean of 3 experiments): 49.3 ^c %
- Expected additive inhibitory effect (Ee), peptide combined with Folicur (F. oxysporum [3]; peptide 100 µg/mL + Folicur 0.01 µg/mL): 37.7%
- Observed inhibitory effect (Er), peptide combined with Folicur (F. oxysporum [3]; peptide 100 µg/mL + Folicur 0.01 µg/mL, mean of 3 experiments): 53.1 ^c %
- Expected additive inhibitory effect (Ee), peptide combined with Folicur (F. oxysporum [3]; peptide 100 µg/mL + Folicur 0.05 µg/mL): 44.1%
- Observed inhibitory effect (Er), peptide combined with Folicur (F. oxysporum [3]; peptide 100 µg/mL + Folicur 0.05 µg/mL, mean of 3 experiments): 56.8 ^c %
- Inhibitory effect on conidial germination (Er), peptide alone (F. oxysporum [3]; peptide 100 µg/mL, Folicur 0.0 µg/mL, SDW, overnight 20–22 °C, mean of 3 experiments): 22.4 ^b %
- Expected additive inhibitory effect (Ee), peptide combined with Folicur (F. oxysporum [3]; peptide 200 µg/mL + Folicur 0.005 µg/mL): 41.8%
- Observed inhibitory effect (Er), peptide combined with Folicur (F. oxysporum [3]; peptide 200 µg/mL + Folicur 0.005 µg/mL, mean of 3 experiments): 62.6 ^d %
- Expected additive inhibitory effect (Ee), peptide combined with Folicur (F. oxysporum [3]; peptide 200 µg/mL + Folicur 0.01 µg/mL): 47.1%
- Observed inhibitory effect (Er), peptide combined with Folicur (F. oxysporum [3]; peptide 200 µg/mL + Folicur 0.01 µg/mL, mean of 3 experiments): 74.8 ^d %
- Expected additive inhibitory effect (Ee), peptide combined with Folicur (F. oxysporum [3]; peptide 200 µg/mL + Folicur 0.05 µg/mL): 52.7%
- Observed inhibitory effect (Er), peptide combined with Folicur (F. oxysporum [3]; peptide 200 µg/mL + Folicur 0.05 µg/mL, mean of 3 experiments): 87.1 ^d %
- Inhibitory effect on conidial germination (Er), peptide alone (F. oxysporum [3]; peptide 200 µg/mL, Folicur 0.0 µg/mL, SDW, overnight 20–22 °C, mean of 3 experiments): 34.1 ^c %
